Tests used:
[1] = system: vaginal tissue construct; assay: microarray analysis of differential gene expression (Affymetrix Human Gene 1.0 ST arrays), tissues treated for seven days via culture medium; assay type: cell-based; details: for VEGFA Fold Change: gene vascular endothelial growth factor A
Description: The data from the Affymetrix Human Gene 1.0 ST arrays were normalized using the Robust Multiarray Average (RMA) algorithm and a Chip Definition File (CDF) that maps the probes on the array to unique Entrez Gene identifiers. The result is a matrix in which each column corresponds to a sample. The expression values are log 2-transformed by default.
By using a fold change >1.5, an analysis of differentially expressed genes was done to identify those genes which were involved in the cornified envelope, keratinocyte differentiation, cell differentiation, epidermis development, epithelial cell differentiation, junctional proteins and signaling, immune response and innate immune response.

[2] = system: EpiVaginal tissues; assay: macrophage infiltration in treated EpiVaginal tissues (barrier function), four hours in the presence of TNF-α; assay type: cell-based; details: vs. 28% into the untreated tissue; macrophages cultured with the tissue for four hours in the presence of TNF-α
Description: FIG. 1 is a graph showing macrophage infiltration in hormone (estrogen) and L759,633-treated EpiVaginal tissues. L759,633 had the most striking effect on macrophage infiltration: only 6% of cells infiltrated into the tissue past 90 μm (vs. 28% into the untreated tissue, p<0.006 ANOVA). […] U=untreated control; E=estradiol; P=progesterone; and IMG=the cannabinoid L759,633.
Many of the above-noted genes are differentially regulated by estradiol in menopausal tissue. […] With respect to the barrier function, only 6% of macrophages which had been cultured with the tissue for four hours in the presence of TNF-α were capable of infiltrating into the tissue past 90 um (vs. 28% into the untreated tissue, p<0.006 ANOVA). […] This would indicate that the increased gene expression of the proteins involved with cross-linking of the keratin fibers, filagrins and desmosomal cadherins are all contributing to the fortification of the vaginal mucosa which would prevent the infiltration of pathogens and prevent the loss of solutes and water from within the tissue.

Compound: C[C@]12CC[C@@H]3c4ccc(O)cc4CC[C@H]3[C@@H]1CC[C@@H]2O [Estradiol, 17β-estradiol, reference compound]
- SPRR2D Fold Change [1]: 2.793 fold
- WFDC12 Fold Change [1]: 3.103 fold
- CD74 Expr Fold Change ([1]; gene CD74 molecule): −1.89 fold
- CD244 Expr Fold Change ([1]; gene CD244 molecule): 2.355 fold
- CDSN Fold Change ([1]; gene Corneodesmosin): 3.011 fold
- CCL28 Expr Fold Change ([1]; gene C−C motif chemokine ligand 28): −1.948 fold
- FYB1 Expr Fold Change ([1]; gene FYN binding protein 1): −2.225 fold
- IFNE Fold Change ([1]; gene Interferon Epsilon): 2.1 fold
- NLRP10 Fold Change ([1]; gene NLR family pyrin domain containing 10): 4.199 fold
- RNAse7 Fold Change ([1]; gene RNAse family): 3.387 fold
- TNFRSF10C Expr Fold Change ([1]; gene TNF receptor superfamily member 10c): −2.162 fold
- TGM1 Fold Change ([1]; gene Transglutaminase 1): 1.406 fold
- TGM3 Fold Change ([1]; gene Transglutaminase 3): 15.681 fold
- TGM5 Fold Change ([1]; gene Transglutaminase 5): 1.135 fold
- VTCN1 Expr Fold Change ([1]; gene V-set domain containing T cell activation inhibitor 1): −2.364 fold
- WFDC5 Fold Change ([1]; gene WAP four-disulfide core domain 5): 1.2 fold
- ALOX12B Fold Change ([1]; gene arachidonate 12-lipoxygenase, 12R type): 2.207 fold
- ALOXE3 Fold Change ([1]; gene arachidonate lipoxygenase 3): 1.371 fold
- CSF2RB Expr Fold Change ([1]; gene colony stimulating factor 2 receptor beta common subunit): 1.517 fold
- CNFN Fold Change ([1]; gene cornifelin): 1.3 fold
- DMKN Fold Change ([1]; gene dermokine): 2.428 fold
- DCS3 Fold Change ([1]; gene descmocollin 3): 1.2 fold
- DSC1 Fold Change ([1]; gene desmocollin 1): 1.673 fold
- DSC2 Fold Change ([1]; gene desmocollin 2): 1.3 fold
- DSG1 Fold Change ([1]; gene desmoglein 1): 4.964 fold
- FLG Fold Change ([1]; gene filaggrin): 3.212 fold
- FLG2 Fold Change ([1]; gene filaggrin family member 2): 2.766 fold
- KPRP Fold Change ([1]; gene human keratinocyte proline rich protein): 5.557 fold
- IL23A Expr Fold Change ([1]; gene interleukin 23 subunit alpha): 2.912 fold
- IL36A Expr Fold Change ([1]; gene interleukin 36 alpha): 3.409 fold
- IL36RN Expr Fold Change ([1]; gene interleukin 36 receptor antagonist): 2.751 fold
- KLK6 Fold Change ([1]; gene kallikrein related peptidase 6): 2.769 fold
- KLK8 Fold Change ([1]; gene kallikrein related peptidase 8): 1.831 fold
- KLK10 Fold Change ([1]; gene kallikrein related peptidase 10): 2.043 fold
- KLK12 Fold Change ([1]; gene kallikrein related peptidase 12): 4.018 fold
- KLK13 Fold Change ([1]; gene kallikrein related peptidase 13): 4.626 fold
- KRT1 Fold Change ([1]; gene keratin 1): 1.949 fold
- KRT2 Fold Change ([1]; gene keratin 2): 1.214 fold
- KRT20 Fold Change ([1]; gene keratin 20): −3.702 fold
- KRT23 Fold Change ([1]; gene keratin 23): 1.891 fold
- KRT24 Fold Change ([1]; gene keratin 24): 1.673 fold
- KRTDAP Fold Change ([1]; gene keratinocyte differentiation associated protein): 13.936 fold
- LCE1A Fold Change ([1]; gene late cornified envelope 1A): 1.307 fold
- LCE1C Fold Change ([1]; gene late cornified envelope 1C): 1.262 fold
- LCE1F Fold Change ([1]; gene late cornified envelope 1F): 1.317 fold
- LCE2A Fold Change ([1]; gene late cornified envelope 2A): 2.026 fold
- LCE2B Fold Change ([1]; gene late cornified envelope 2B): 1.89 fold
- LCE2C/LCE2D Fold Change ([1]; gene late cornified envelope 2D): 1.903 fold
- LCE5A Fold Change ([1]; gene late cornified envelope 5A): 1.454 fold
- LIPM Fold Change ([1]; gene lipase family member M): 3.572 fold
- LIPN Fold Change ([1]; gene lipase family member N): 4.57 fold
- LIPN1 Fold Change ([1]; gene lipin 1): 2.831 fold
- LOR Fold Change ([1]; gene loricrin): 1.207 fold
- HLA-DPA1 Expr Fold Change ([1]; gene major histocompatibility complex, class II, DP alpha 1): −1.8 fold
- HLA-DRA Expr Fold Change ([1]; gene major histocompatibility complex, class II, DR alpha): −2.234 fold
- HLA-DRB6 Expr Fold Change ([1]; gene major histocompatibility complex, class II, DR beta 6 (pseudogene)): −2.5 fold
- MUCL1 Fold Change ([1]; gene mucin like 1): 2.857 fold
- PLA2G2F Fold Change ([1]; gene phospholipase A2 group IIF): 1.824 fold
- PLA2G3 Fold Change ([1]; gene phospholipase A2 group III): 1.64 fold
- PLA2G4D Fold Change ([1]; gene phospholipase A2 group IVD): 2.046 fold
- PLA2G4E Fold Change ([1]; gene phospholipase A2 group IVE): 2.442 fold
- PLA2G10 Fold Change ([1]; gene phospholipase A2 group X): −2.948 fold
- SERPINB12 Fold Change ([1]; gene serpin family B member 12): 1.3 fold
- SPRR2G Fold Change ([1]; gene small proline rich protein 2G): 4.664 fold
- SPRR4 Fold Change ([1]; gene small proline rich protein 4): 2.669 fold
- SLC44A4 Fold Change ([1]; gene solute carrier family 44 member 4): −1.8 fold
- SBSN Fold Change ([1]; gene suprabasin): 3.449 fold
- TLR3 Expr Fold Change ([1]; gene toll like receptor 3): −2.081 fold
- TRPV3 Fold Change ([1]; gene transient receptor potential cation channel subfamily V member 3): 1.6 fold
- VEGFA Fold Change [1]: 1.2 fold
- VEGFA Fold Change ([1]; listed as estradiol): 2.2 fold
- HLA-DMA expression ([1]; result in words): down-regulate
- HLA-DMB expression ([1]; result in words): down-regulate
- macrophages infiltrated into the tissue past 90 μm [2]: 16%

From patent publication US11033527B2, “Non-hormonal treatment of the genitourinary syndrome of menopause” (IMMUGEN PHARMA LLC, priority 2018, dated 2021)
